pIC50: −log10 of the molar value. The source made the active and inactive calls. The rule behind the calls is not given here.
Legend:
[1] = target: T1, Amine oxidase [flavin-containing] A (Homo sapiens, UniProt P21397); assay: Inhibition of MAO-A (unknown origin) using kynuramine as substrate at 10 uM preincubated for 30 mins followed by substrate addition and measured after 30 mins by fluorescence based analysis relative to control; conditions: 0.5 h, time 60 min
T1 sequence (P21397 whole entry): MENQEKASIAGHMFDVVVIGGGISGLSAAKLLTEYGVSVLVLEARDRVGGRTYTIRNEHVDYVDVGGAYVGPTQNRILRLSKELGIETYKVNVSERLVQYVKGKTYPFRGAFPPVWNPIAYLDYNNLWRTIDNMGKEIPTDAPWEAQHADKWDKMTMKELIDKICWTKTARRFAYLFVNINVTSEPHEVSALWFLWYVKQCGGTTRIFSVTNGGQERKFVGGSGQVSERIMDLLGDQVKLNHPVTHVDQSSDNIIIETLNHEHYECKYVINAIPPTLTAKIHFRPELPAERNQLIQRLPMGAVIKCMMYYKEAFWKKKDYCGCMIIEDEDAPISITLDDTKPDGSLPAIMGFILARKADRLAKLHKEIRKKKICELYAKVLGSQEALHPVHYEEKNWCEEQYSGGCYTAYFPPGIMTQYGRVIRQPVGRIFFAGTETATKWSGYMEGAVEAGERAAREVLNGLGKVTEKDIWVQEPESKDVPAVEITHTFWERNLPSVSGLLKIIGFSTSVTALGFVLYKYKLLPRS

[2] = target: T2, Amine oxidase [flavin-containing] B (Homo sapiens, UniProt P27338)
T2 sequence (P27338 whole entry): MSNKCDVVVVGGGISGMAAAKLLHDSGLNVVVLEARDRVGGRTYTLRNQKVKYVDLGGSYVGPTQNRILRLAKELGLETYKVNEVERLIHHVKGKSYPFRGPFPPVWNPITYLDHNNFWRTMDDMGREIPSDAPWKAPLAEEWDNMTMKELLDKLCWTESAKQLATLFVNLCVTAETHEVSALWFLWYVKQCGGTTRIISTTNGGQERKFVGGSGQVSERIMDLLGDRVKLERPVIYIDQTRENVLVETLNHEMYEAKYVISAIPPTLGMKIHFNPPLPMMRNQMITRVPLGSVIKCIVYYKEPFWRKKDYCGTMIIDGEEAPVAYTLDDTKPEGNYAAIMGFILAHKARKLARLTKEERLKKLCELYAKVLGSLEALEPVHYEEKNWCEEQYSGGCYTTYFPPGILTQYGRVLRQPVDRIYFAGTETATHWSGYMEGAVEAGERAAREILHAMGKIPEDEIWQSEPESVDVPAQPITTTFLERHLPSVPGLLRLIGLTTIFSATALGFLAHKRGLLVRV
Description: Inhibition of MAO-B (unknown origin) using kynuramine as substrate preincubated for 30 mins followed by substrate addition and measured after 30 mins by fluorescence based analysis

Mus musculus = species: Mus musculus; conditions: C57BL/6C, dose 50.0 mg/kg, route ig, time 3.0 weeks

inhibition at 10 µM [1] [%] | pIC50 [2] | SMILES | inhibition (Mus musculus)
49.2 | 7.48 | Oc1cc(OCc2ccc(F)c(Cl)c2)ccc1CNc1ccccc1 | 
20.5 | 6.60 | Oc1cc(OCc2cccc(Cl)c2)ccc1CNc1ccccc1 | 
14.7 | 6.32 | Oc1cc(OCc2ccccc2)ccc1CNc1ccccc1 | 
30.6 | 7.07 | O=[N+]([O-])c1ccc(COc2ccc(CNc3ccccc3)c(O)c2)cc1 | 
9.25 | 6.53 | Oc1cc(OCc2cccc(C(F)(F)F)c2)ccc1CNc1ccccc1 | 
52.5 | 7.31 | Oc1cc(OCc2ccc(Cl)c(Cl)c2)ccc1CNc1ccccc1 | 
< 5 | 6.46 | COc1cccc(COc2ccc(CNc3ccccc3)c(O)c2)c1 | 
48 | 7.68 | Oc1cc(OCc2ccc(F)c(F)c2)ccc1CNc1ccccc1 | 
10.3 | 6.37 | Oc1cc(OCc2ccccc2Cl)ccc1CNc1ccccc1 | 

SMILES | inhibition at 10 µM [1] [%] | pIC50 [2] | inhibition (Mus musculus)
C[C@H](NCc1ccc(OCc2cccc(F)c2)cc1)C(N)=O [SAFINAMIDE] | 25.7 |  | Active
